Measurements: patent US20250170155A1, “NUCLEOSIDE DERIVATIVES AND PRODRUGS THEREOF HAVING VIRAL GROWTH INHIBITORY ACTION” (Shionogi & Co., Ltd., priority 2021, published 2025)

Experiments:
Format in all cases: cell-based
[1] = test system: SARS-CoV-2 (hCoV-19/Japan/TY/WK-521/2020 strain); experiment: CPE suppression effect confirmation test (SARS-CoV-2, Vero E6/TMPRSS2 cells), antiviral activity; conditions: for EC50: Severe acute respiratory syndrome coronavirus 2, VeroE6/TMPRSS2, 72 h, read-out: SARS-CoV-2 EC50 (50% CPE inhibitory concentration), 3 days culture
[2] = Cytotoxic activity evaluation, RPMI 2650 cells; conditions: human, no virus, 3 to 6 days
Description: (§1) <Operation Procedure (Cytotoxic Activity Evaluation)>
On the day before the compound treatment, cells prepared to an appropriate number were seeded in a 96 well plate at 100 μL/well. Thereafter, the cells were cultured in a CO2 incubator at 37° C. • Preparation of 2 μg/mL trypsin/0.5% BSA/MEM
Same as those described in the section for evaluation of antiviral activity • Dilution and dispensing of test substance
A 3- to 5-fold serial dilution series of test substances was prepared in DMSO in advance, and diluted with 2 μg/mL trypsin/0.5% BSA/MEM so that the final concentration of DMSO was 0.5% (100 to 200 μL/well). The cells were washed with MEM, and then cultured in a test substance-added medium for 3 to 6 days. Double measurement was performed for each drug. • Dispensing of resazurin solution
Same as those described in the section for evaluation of antiviral activity • Measurement of fluorescence intensity
(§2) Same as those described in the section for evaluation of antiviral activity
(§3) [formula] [formula] • Calculation of Selectivity Index (SI)

[3] = test system: influenza virus (A/WSN/33 (H1N1) strain); experiment: CPE suppression effect confirmation test (influenza virus, RPMI 2650 cells), antiviral activity; conditions: for EC50: read-out: Influenza EC50 (50% CPE inhibitory concentration), A/WSN/33 (H1N1), 3 to 6 days
[4] = Cytotoxic activity evaluation, Vero E6/TMPRSS2 cells; conditions: African green monkey, no virus
Description: as §1
A 3- to 5-fold serial dilution series of test substances was prepared in DMSO, diluted with 2% FBS/MEM so that the concentration of DMSO was 2%, and dispensed into a 96 well plate (50 μL/well, DMSO final concentration 0.5%). • Dilution and dispensing of cells
The cells prepared to an appropriate number were seeded at 100 μL/well to the plate into which the test substance was dispensed. Thereafter, the cells were cultured in a CO2 incubator at 37° C. for 3 days. • Dispensing of CellTiter-Glo (registered trademark) 2.0 Reagent
(§4) Same as those described in the section for evaluation of antiviral activity • Measurement of luminescence intensity
as §2
Excel, TIBCO Spotfire, or a program having equivalent calculation processing capability based on the following calculation formula.

[5] = test system: SARS-CoV-2 (hCoV-19/Japan/TY/WK 521/2020 strain); experiment: microbe, parasite or virus in culture; conditions: HEK293T/ACE2-TMPRSS2 cells; for EC50: Severe acute respiratory syndrome coronavirus 2, HEK-293T, 72 h, read-out: SARS-CoV-2 EC50 (50% CPE inhibitory concentration), 293T-AT, 3 days culture
[6] = Cytotoxic activity evaluation, HEK293T/ACE2-TMPRSS2 cells; conditions: human, no virus
Description: as §1
A 3- to 5-fold serial dilution series of test substances was prepared in DMSO, diluted with 2% FIBS/MEM so that the concentration of DMSO was 2%, and dispensed into a 96 or 384/well well plate (50 μL/well or 40 μL/well, DMSO final concentration 0.5%). • Dilution and dispensing of cells
The cells prepared to an appropriate number were seeded at 100 μL/well or 40 μL/well to the plate into which the test substance was dispensed. Thereafter, the cells were cultured in a CO2 incubator at 37° C. for 3 days. • Dispensing of CellTiter-Glo (registered trademark) 2.0 Reagent
as §4, §2, §3

Row | SMILES | SARS-CoV-2 SI (Selectivity Index) [1] | EC50 [1] | CC50 [2] | Influenza SI (Selectivity Index) [3] | EC50 [3] | CC50 at 3 days [4] | SARS-CoV-2 SI (Selectivity Index), 293T-AT [5] | EC50 [5] | CC50 at 3 days [6]
1 | Cl.Cl.Nc1ncnn2c([C@@H]3N[C@H](CO)[C@@H](O)[C@H]3O)cc(-c3c[nH]cn3)c12 [Compound I-023] | 923 | 0.17 µM | 51.8 µM | 52.7 | 0.983 µM | 157 µM |  |  | 
2 | Cc1cnc(-c2cc([C@@H]3N[C@H](CO)[C@@H](O)[C@H]3O)n3ncnc(N)c23)o1.Cl [Compound I-090] |  |  |  |  |  |  | >13.1 | 38.1 µM | > 500 µM
3 | Cl.Nc1ncnn2c([C@@H]3N[C@H](CO)[C@@H](O)[C@H]3O)cc(-c3cc(O)ccn3)c12 [Compound I-087] |  |  |  |  |  |  | 3.97 | 18.9 µM | 75 µM
4 | Cl.Nc1nc(F)nn2c([C@@H]3N[C@H](CO)[C@@H](O)[C@H]3O)cc(-c3c[nH]nn3)c12 [Compound I-082] |  |  |  |  |  |  | 37.8 | 3.97 µM | 150 µM
5 | Cc1nc(N)c2c(C(N)=O)cc([C@@H]3N[C@H](CO)[C@@H](O)[C@H]3O)n2n1.Cl [Compound I-089] |  |  |  |  |  |  | >14.2 | 35.3 µM | > 500 µM
6 | Cn1ncc(-c2cc([C@@H]3N[C@H](CO)[C@@H](O)[C@H]3O)n3ncnc(N)c23)n1 [Compound I-086] |  |  |  |  |  |  | 19.4 | 11.6 µM | 225 µM
7 | Cl.[2H]C([2H])(O)[C@H]1N[C@@H](c2cc(C(N)=O)c3c(N)ncnn23)[C@H](O)[C@@H]1O [Compound I-095] |  |  |  |  |  |  | 2769 | 0.0228 µM | 62.9 µM
8 | NC(=O)c1cc([C@@H]2N[C@H](CO)[C@@H](O)[C@H]2O)n2ncnc(N)c12 [Compound I-010] | 2488 | 0.18 µM |  |  |  | 448 µM | 1050 | 0.0395 µM | 
9 | Cl.Nc1nc(F)nn2c([C@@H]3N[C@H](CO)[C@@H](O)[C@H]3O)cc(-c3ncc[nH]3)c12 [Compound I-094] |  |  |  |  |  |  | >10.2 | 49.1 µM | > 500 µM
10 | Cn1cnc(-c2cc([C@@H]3N[C@H](CO)[C@@H](O)[C@H]3O)n3ncnc(N)c23)c1 [Compound I-039] | >6.02 | 83.1 µM |  |  |  | > 500 µM |  |  | 
11 | Cl.Nc1ncnc2c([C@@H]3N[C@H](CO)[C@@H](O)[C@H]3O)cc(-c3c[nH]nn3)n12 [Compound I-083] |  |  |  |  |  |  | 8.71 | 5.2 µM | 45.3 µM
12 | Cl.NC(=O)c1cc([C@@H]2N[C@H](CO)[C@@H](O)[C@H]2O)n2nc(F)nc(N)c12 [Compound I-057] | 434 | 0.131 µM |  |  |  | 56.8 µM |  |  | 
13 | Cl.Nc1nc(F)nn2c([C@@H]3N[C@H](CO)[C@@H](O)[C@H]3O)cc(-c3cc[nH]n3)c12 [Compound I-052] | >79.7 | 6.27 µM |  |  |  | > 500 µM |  |  | 
14 | C#CCNC(=O)c1cc([C@@H]2N[C@H](CO)[C@@H](O)[C@H]2O)n2ncnc(N)c12 [Compound I-075] | >185 | 2.7 µM |  |  |  | > 500 µM |  |  | 
15 | Cl.Nc1ncnn2c([C@@H]3N[C@H](CO)[C@@H](O)[C@H]3O)cc(-c3nc[nH]n3)c12 [Compound I-037] | 8.63 | 1.97 µM | 6.81 µM | <1.70 | > 4 µM | 17 µM |  |  | 
16 | Nc1ncnn2c([C@@H]3N[C@H](CO)[C@@H](O)[C@H]3O)cnc12 [Compound I-001] | <1.22 | > 0.8 µM | 70.5 µM | 67.1 | 1.05 µM | 0.977 µM |  |  | 
17 | Nc1ncnn2c([C@@H]3N[C@H](CO)[C@@H](O)[C@H]3O)cc(-c3c[nH]nn3)c12 [Compound I-053] | 677 | 0.465 µM |  |  |  | 315 µM |  |  | 
18 | Cl.Nc1ncnn2c([C@@H]3N[C@H](CO)[C@@H](O)[C@H]3O)cc(-c3nc4ccccc4s3)c12 [Compound I-045] | 25.4 | 3.78 µM |  |  |  | 96 µM |  |  | 
19 | Cl.Nc1ncnn2c([C@@H]3N[C@H](CO)[C@@H](O)[C@H]3O)cc(-c3ccc(F)cn3)c12 [Compound I-051] | >6.13 | 81.5 µM |  |  |  | > 500 µM |  |  | 
20 | Cc1c[nH]c(-c2cc([C@@H]3N[C@H](CO)[C@@H](O)[C@H]3O)n3ncnc(N)c23)n1 [Compound I-091] |  |  |  |  |  |  | >2.29 | 218 µM | > 250 µM
21 | Cl.Nc1ncnn2c([C@@H]3N[C@H](CO)[C@@H](O)[C@H]3O)cc(-c3ccn(CCO)n3)c12 [Compound I-092] |  |  |  |  |  |  | >1577 | 0.317 µM | > 500 µM
22 | CN1[C@H](CO)[C@@H](O)[C@@H](O)[C@@H]1c1cc(C(N)=O)c2c(N)ncnn12.Cl [Compound I-076] | >30.7 | 16.3 µM |  |  |  | > 500 µM |  |  | 
23 | CCn1ccc(-c2cc([C@@H]3N[C@H](CO)[C@@H](O)[C@H]3O)n3ncnc(N)c23)n1.Cl [Compound I-081] |  |  |  |  |  |  | 222 | 1.38 µM | 306 µM
24 | CCn1cc(-c2cc([C@@H]3N[C@H](CO)[C@@H](O)[C@H]3O)n3ncnc(N)c23)nn1.Cl [Compound I-093] |  |  |  |  |  |  | >2.37 | 211 µM | > 500 µM
25 | Nc1ncnn2c([C@@H]3N[C@H](CO)[C@@H](O)[C@H]3O)cc(-c3ncc[nH]3)c12 [Compound I-033] | >134 | 3.74 µM |  |  |  | > 500 µM |  |  | 
26 | Cl.Cn1cc(-c2cc([C@@H]3N[C@H](CO)[C@@H](O)[C@H]3O)n3ncnc(N)c23)nn1 [Compound I-040] | >5.93 | 84.3 µM |  |  |  | > 500 µM |  |  | 
